“And” between values parts separate entries of the source, which are not always exact repeats. Equal values may be shown once. Where a name gives a salt, the structure may show the parent alone. Square brackets hold non-standard residues; d marks the D form. Peptide text beside a SMILES is read from it. Nle = CCCC[C@H](N)C(=O)O
Assays:
[1] = test system: SARS-CoV-2 (USA-WA1/2020 isolate); format: cell-based
[2] = test system: MLV reporter luciferase virus pseudotyped with the SARS-CoV-2 Spike protein (SARS2-S)
SARS-CoV-2 = format: cell-based
SARS2-S = assay: microbe, parasite or virus in culture; format: cell-based, SARS-CoV-2; details: Severe acute respiratory syndrome coronavirus 2, read-out: SARS2-S IC50
VSV-G = assay: microbe, parasite or virus in culture; format: cell-based; details: Vesicular stomatitis virus, read-out: VSV-G IC50
SARS1-S = assay: microbe, parasite or virus in culture; format: cell-based, SARS-CoV-1
[3] = test system: main viral protease (MPRO); details: read-out: MPRO IC50; cited from earlier work
SARS2-S WT = assay: microbe, parasite or virus in culture; format: cell-based, SARS-CoV-2; details: Severe acute respiratory syndrome coronavirus 2, read-out: WT IC50

| SMILES | activity against wild type SARS-CoV-2 (CPE) [1] | higher potency as compared to the best ReFRAME hit, SR-806 (VBY-825) [2] [fold] | higher specificity as compared to the best ReFRAME hit, SR-806 (VBY-825) [2] | therapeutic index (TI=CC50/IC50) [2] | activity in plaque assays of wild type SARS-CoV-2 infection (SARS-CoV-2) | IC50 (SARS2-S) [nM] | EC50 ([1]; read-out: EC50, SARS-CoV-2-induced CPE assay) | IC50 (VSV-G) [nM] | less potent against SARS1-S than against SARS2-S (SARS1-S) [fold] | IC50 (SARS1-S; Severe acute respiratory syndrome coronavirus, read-out: SARS1-S IC50) [nM] | IC50 [3] [nM] | IC50 (SARS2-S WT) [nM] |
| --- | --- | --- | --- | --- | --- | --- | --- | --- | --- | --- | --- | --- |
| CN(C)C(=O)COC(=O)Cc1ccc(OC(=O)c2ccc(NC(=N)N)cc2)cc1 [Camostat mesylate, reference compound] | did not shown any activity | – | – | – | – | – | – | – | – | – | – | – |
| CCCC[C@@H](C=O)NC(=O)[C@H](CC(C)C)NC(=O)[C@H](CC(C)C)NC(C)=O [SR-372, calpain inhibitor I] (Ac-Leu-Leu-[Nle]-aldehyde) | – | 3.5 | > 3 fold | greater than 100 | – | – | – | – | – | – | – | – |
| CCCC[C@@H](C=O)NC(=O)[C@H](CC(C)C)NC(=O)OCc1ccccc1 [SR-914, calpeptin] | – | 7.1 | higher than 7.1 fold | greater than 100 | further confirmed | 10.9 ± 0.78 | 174 nM and 163 nM | > 20000 | ~8 | 77.2 ± 4.69 | 10400 | 3.78 |
